Laboratory results from US20230393170A1, “IN SITU MECHANICAL CHARACTERIZATION OF A SAMPLE STRAIN” (BOARD OF REGENTS OF THE UNIVERSITY OF NEBRASKA, priority 2020, published 2023).
Entries after “also recorded” stand apart in the source; their conditions may differ.

Tested on: A431 cell pair cell-cell junction
Assay: Displacement-controlled stretch test of a single cell pair treated with contractility modulators
Assay type: cell-based
Text: To apply strain to the cell-cell junction, the test platform was placed with deposited cells under the AFM integrated with an inverted microscope. An AFM probe with a through-hole drilled at the front end using a focused ion beam (FIB) is positioned above the micropillar on Island 2 and then lowered to capture it within the through-hole. With this, displacement was applied and displacement rates were tried to investigate the mechanical behavior of the cell-cell junction with obtained stress-strain curves (as discussed below with reference to FIG. 12).
The cell pair was treated with cellular contractility modulators, RhoA Activator I. CN01, and myosin II inhibitor: blebbistatin (Bleb), to examine the impact of actomyosin activity on the mechanical behavior of the cell pair under mechanical stress. Stress-strain curves collected at 0.5% s^−1 strain rate show a clear contrast between samples treated with CN01, Bleb, and DMSO control. […] The stress-strain curves were then analyzed using the constitutive model. […] The increase (decrease) in both η and E2 by CN01 (Bleb) is consistent with the enhanced (reduced) stress fiber formation.
Zyxin staining was performed to visualize the focal adhesion points between cells and the structure. After fixing the cells (see above), the anti-zyxin antibody (Sigma) with a ratio of 1:250 with PBS was added to the sample and refrigerated for 24 hours. The solution was then removed, and the sample was washed with PBS. PBS was replaced by Goat anti-Rabbit IgG (H+L), Superclonal™ Recombinant Secondary Antibody, Alexa Fluor 647 (Thermofisher) and incubated for 1 hour at 37° C. Finally, the sample was washed with PBS and the actin and nuclei staining protocol were performed. Pharmacological treatments modulating cell contractility included 3 μM blebbistatin (Bleb) (Sigma-Aldrich) for 2 h and 1 unit/ml Rho Activator I (CN01; Cytoskeleton, Inc., Denver, CO) for 30 min.
A modified version of MATLAB digital image correlation (DIC) was used to analyze the frames from the stretch test. The first frame was considered as the reference and the rest of the frames were compared to the reference frame to calculate the displacement of each island. A region of interest with markers within the region was defined for both islands. Then, the MATLAB code calculated the markers' new coordinates with respect to the first frame, from which the displacement of the islands was calculated. The force is defined by the Island 1 displacement multiplied by its stiffness, and the stress is acquired by dividing the force by the junction cross-section (approximately 120 μm^2). The strain is then calculated as the difference between the islands' displacements divided by the cell-cell junction's initial length (approximately 20 μm).
Each stretch test was recorded with a screen recorder software (Camtasia) and the movie was divided into frames that were analyzed with a customized DIC-based program to calculate each island's movement. In this method, a region of interest is defined and, within this region, a few markers are placed. The higher the number of markers, the better the resolution of the calculated displacement is. Then, when the coordinates of these markers change, a corresponding red marker appears (FIGS. 12A and 12B). In the first frame, both initial and displaced positions of markers are completely overlapped so just red markers are shown. […] The strain is calculated by dividing the difference of both islands' displacements by the initial length […]. […]

[1] = 0.5% s^-1 strain rate, fit of stress-strain curves

Cc1ccc2c(c1)C(=O)C1(O)CCN(c3ccccc3)C1=N2 (centres unmarked) [Bleb, blebbistatin]
rupture of the cell-cell adhesion junction (0.5% s^-1 (100 nm/s) strain rate): ruptured at the initial stages | overall stress level compared with controls (0.5% s^-1 strain rate (100 nm/s), CN01 1 unit/ml 30 min, Bleb 3 μM 2 h, vs DMSO control): reduces the stress accumulation; also recorded: stress level was low compared to other conditions | Membrane stiffness, E1 (MSLS model fit) [1]: stays the same for all conditions | elastic moduli of the intracellular components, E2 (MSLS model fit) [1]: reduces them | viscosity, η (MSLS model fit) [1]: reduces them
